Measured values taken from patent US20050222043A1, “Use of proteasome inhibitor in the treatment of fibrotic diseases” (priority 2002, published 2005).
“Also recorded” adds a separate entry of the source. Peptide text beside a SMILES is read from it. * marks the point of attachment. Cbz = O=C(OCc1ccccc1)*

Tests used:
[1] = tested on: collagens Iα1, Iα2 and IIIα1; test: Real-time PCR of collagen expression (stated jointly) in cardiac fibroblasts; type: cell-based, rat; settings: primary cardiac fibroblasts, FIG. 2B
Protocol: (§1) Cardiac fibroblasts were prepared from neonatal Wistar rats by plating the non-myocyte fraction of neonatal hearts. The hearts were removed from neonatal rats being 2-3 days old. Ventricular tissue was treated over night at 4° C. with […] trypsin in Hanks-Balanced Salt Saline (HBSS) (Ca^2+- and Mg^2+-free, Invitrogen™, Karlsruhe, Germany) and with collagenase (0,5 mg per ml) in Leibowitz medium (L-15, Invitrogen™, Karlsruhe, Germany) for 45 minutes at 37° C. After washing, the cells were pre-plated at 37° C. for one hour. The adherent cells predominantly were cardiac fibroblasts, which were then further cultivated under standard conditions in standard M199-medium with 10% new-born calf serum, L-glutamine and penicillin-streptomycin (Invitrogen™, Karlsruhe, Germany). In the experiments, we used sub-cultivated fibroblasts of the passages 3-7.
(§2) Total RNA was extracted by means of Trizol reagent (Invitrogen™, Karlsruhe, Germany). In the following, the RNA was subjected to reverse transcription (AMF Reverse Transkriptase, Roche Biochemicals, Mannheim, Germany) and treated with DNase (Ambion, Huntington, UK). […] The relative quantification was performed by means to the comparative CT-method as being described by the manufacturer. […]

[2] = tested on: spontaneously hypertensive rats (SH-rats); test: Histological determination of cardiac fibrosis (quantitative morphometry of siriusred-stained left-ventricular sections) in SH-rats; type: in vivo, rat; settings: MG132-treated, FIG. 1B
Protocol: For the pathohistological evaluation, the rat hearts were embedded into paraffin, cut into sections having a thickness of 3 μm, subjected to a haematoxylin-eosin and siriusred staining and analysed as being described in Hocher, B. et al., (1999), Hypertension, 3, 816-822. The degree of heart fibrosis was evaluated by means of quantitative morphometry of the siriusred-stained sections with an image analysis system (Quantimed 500, Image 1.61 program). In this analysis, the ratio of the red-stained tissue (connective tissue) and the total tissue of the section was determined.
Male SH-rats of the same age were obtained from the Jackson Laboratory, Maine, USA. […] The blood pressure was measured weekly by means of the standard tail-cuff method. The blood values and the standard laboratory markers of the renal and hepatic functions were determined 6 weeks after the treatment and at the end of the study by means of standard methods. At the end of the study, the animals were anaesthetised by means of an intraperitoneal injection of a 20% urethane solution (0,9 g per kg body weight) and the left-ventricular pressure parameters were determined as being described by Saragoca, M. et al. (1981) Hypertension, 3, 380-385. […]
The data was determined in the form of mean values ±S.E.M., if not otherwise indicated. […]

[3] = tested on: spontaneously hypertensive rats (SH-rats); test: Left-ventricular pressure parameters in SH-rats; type: in vivo, rat; settings: 1 mg/kg daily i.p., 12 weeks
Protocol: (§3) Male SH-rats of the same age were obtained from the Jackson Laboratory, Maine, USA. The animals were maintained according to the international guidelines for the keeping und use of laboratory animals. 6-week-old rats were treated for 12 weeks with MG132 (1 mg per kg body weight), 0,1% DMSO as solvent control or with physiological saline (n=10 per group, daily intraperitoneal injection). The animals were fed with a high salt diet (drinking water with 2% sodium chloride). The blood pressure was measured weekly by means of the standard tail-cuff method. The blood values and the standard laboratory markers of the renal and hepatic functions were determined 6 weeks after the treatment and at the end of the study by means of standard methods. At the end of the study, the animals were anaesthetised by means of an intraperitoneal injection of a 20% urethane solution (0,9 g per kg body weight) and the left-ventricular pressure parameters were determined as being described by Saragoca, M. et al. (1981) Hypertension, 3, 380-385. The organs were withdrawn, weighed and either shock-frozen in liquid nitrogen or embedded in paraffin for the histological analysis. Since no difference was observed between the DMSO-treated and the salt-treated SH-rats in respect to the above mentioned parameters, the DMSO-treated animals served as a control for the MG132-treatment.
(§4) The data was determined in the form of mean values ±S.E.M., if not otherwise indicated. The significance of the differences in the left-ventricular pressure parameters and in the quantification of the heart fibrosis was determined according to Student's T-test. For the cell proliferation test, the significance was determined by comparing the regression coefficients of MG132 in relation to the control group. An error probability of p<0,05 was considered as being significant. The software SPSS 9.0 was used for all statistical calculations.

[4] = tested on: spontaneously hypertensive rats (SH-rats); test: Animal study: tolerability, blood pressure, weights, blood values in SH-rats; type: in vivo, rat
Protocol: as §3

cardiac fibroblasts = test: Proliferation test (trypanblue exclusion cell counting); type: cell-based, rat; settings: 0,1 and 1 μM, 10% serum, counted daily for 7 days
Protocol: Cardiac fibroblasts were prepared from neonatal Wistar rats by plating the non-myocyte fraction of neonatal hearts. The hearts were removed from neonatal rats being 2-3 days old. Ventricular tissue was treated over night at 4° C. with […] trypsin in Hanks-Balanced Salt Saline (HBSS) (Ca^2+- and Mg^2+-free, Invitrogen™, Karlsruhe, Germany) and with collagenase (0,5 mg per ml) in Leibowitz medium (L-15, Invitrogen™, Karlsruhe, Germany) for 45 minutes at 37° C. After washing, the cells were pre-plated at 37° C. for one hour. […]
MG132, ALLM and MG262 were purchased at Calbiochem® (San Diego, Calif., USA) and provided as 10 mM DMSO stock solutions. […] The proliferation was determined by counting the living cells in triplicate in daily intervals by means of the trypanblue exclusion test. […]
as §4, with “An error probability of p<0,05 was considered as being significant. The software SPSS 9.0 was used for all statistical calculations.” left out

collagen Iα1 = test: Real-time PCR of collagen Iα1 mRNA in cardiac fibroblasts; type: cell-based, rat; settings: primary cardiac fibroblasts
Protocol: as §1
(§5) Total RNA was extracted by means of Trizol reagent (Invitrogen™, Karlsruhe, Germany). In the following, the RNA was subjected to reverse transcription (AMF Reverse Transkriptase, Roche Biochemicals, Mannheim, Germany) and treated with DNase (Ambion, Huntington, UK). […] The relative quantification was performed by means to the comparative CT-method as being described by the manufacturer.

collagen Iα2 = test: Real-time PCR of collagen Iα2 mRNA in cardiac fibroblasts; type: cell-based, rat; settings: primary cardiac fibroblasts
Protocol: as §1, §5

collagen IIIα1 = test: Real-time PCR of collagen IIIα1 mRNA in cardiac fibroblasts; type: cell-based, rat; settings: primary cardiac fibroblasts
Protocol: as §1, §5

MMP2 and MMP9 = test: Real-time PCR of MMP expression in cardiac fibroblasts; type: cell-based, rat; settings: FIG. 4A
Protocol: as §1, §2

NFκB = test: Band shift analysis for active NFκB in nuclear extracts of cardiac fibroblasts; type: cell-based, rat; settings: 0,5 μM with IL-1β; not less than 6 hours
Protocol: This was additionally confirmed in band shift analyses with oligonucleotides comprising a NFκB-DNA binding site. For this test, nuclear extracts from cardiac fibroblasts were prepared, which were treated with 0,5 μM MG132 or, respectively, with DMSO (solvent control) in a time course in the presence or absence of IL-1β.

Structure (SMILES) | effect on collagen expression [1] | cardiac fibrosis in heart section (in words) [2] | LVEDP compared with control (in words) ([3]; 1 mg/kg) | dp/dtmax compared with control (in words) ([3]; 1 mg/kg) | left-ventricular end-diastolic (filling) pressure LVEDP ([3]; mean ± S.E.M.) [mm Hg] | maximal pressure drop rate dp/dtmin ([3]; mean ± S.E.M.) [mm Hg/s] | tolerability of long-term treatment ([4]; SH-rats, 1 mg per kg daily, 12 weeks) | Body Weight ([4]; SH-rats, 1 mg/kg MG132) [g] | differential blood picture and laboratory markers of kidney or liver side effects ([4]; blood samples after 6 weeks and at end of study) | inhibition of proliferation / growth of cardiac fibroblasts (cardiac fibroblasts) | expression of collagen Iα1 (collagen Iα1) | expression of collagen Iα2 (in words) (collagen Iα2; FIG. 2B) | down-regulation / inhibition of collagen Iα2 RNA expression (collagen Iα2; dose-dependent) | expression of collagen IIIα1 (in words) (collagen IIIα1; FIG. 2B) | down-regulation / inhibition of collagen IIIα1 RNA expression (collagen IIIα1; dose-dependent) | expression of MMP2 and MMP9 under co-stimulation with IL-1β (MMP2 and MMP9) | effect on IL-1β-induced NFκB activation (band shift) (NFκB)
CSCC[C@@H](C=O)NC(=O)[C@H](CC(C)C)NC(=O)[C@H](CC(C)C)NC(C)=O [ALLM] (Ac-Leu-Leu-Met-aldehyde) | no effects |  |  |  |  |  |  |  |  |  |  |  |  |  |  |  | 
CC(C)C[C@@H](C=O)NC(=O)[C@H](CC(C)C)NC(=O)[C@H](CC(C)C)NC(=O)OCc1ccccc1 [MG132, Z-Leu-Leu-Leu-al] (Cbz-Leu-Leu-Leu-aldehyde) |  | significantly reduced cardiac fibrosis | remarkably reduced pressure level; also recorded: significantly lower | significantly higher; also recorded: more than twice higher | 5±3 | −5046±726 | very well tolerated; also recorded: in general well tolerated | 280 ± 15.3 | neither changes in the differential blood picture nor a change in the laboratory markers | dose-dependent inhibition of proliferation | unaffected | dose-dependent and dramatic reduction | up to 73% | dose-dependent and dramatic reduction | up to 91% | surprisingly strong reduction | small inhibitory effect
CC(C)C[C@H](NC(=O)[C@H](CC(C)C)NC(=O)[C@H](CC(C)C)NC(=O)OCc1ccccc1)B(O)O [MG262] | inhibited the collagen expression in a comparably effective manner |  |  |  |  |  |  |  |  |  |  |  |  |  |  |  | 
